The subject of data set [1] is mouse bone marrow red cells. The conditions noted are these: positive control 40 mg/kg BW; P<0.01.
Protocol: 3.3 Mammalian red blood cell micronucleus test: 50 healthy, mature mice with weight of 25-30 g were selected, with half male and half female. The mice were randomly divided into 5 groups, 10 mice in each group, and half male and half female in each group. The experiment was conducted with three dose groups of 1.25, 2.5, and 5.0 g/kgBW Samples of 2.5, 5.0, and 10.0 g were weighed and prepared into 40 mL sample solutions using distilled water as the solvent. […] Mice were given test substance by oral gavage at a volume of 20 mL/kgBW, gavaged twice with an interval of 24 hours. Six hours after the second gavage, the animals were euthanized due to cervical dislocation. Sternal bone marrow was taken and made into bone marrow slices, fixed with methanol, and stained with Giemsa.
2000 polychromatic erythrocytes in each animal were observed and a frequency of micronucleus polychromatic erythrocytes (namely, micronucleus frequency) was counted, expressed in thousandths.
The test system of data set [2] is mice with hyperuricemia induced by fructose and yeast diet. Put plainly: Model of hyperuricemia induced by fructose and yeast diet, serum uric acid. The format is in vivo. From the text:
1. Experimental animal: […] At the Experimental Animal Center of Qingdao University, all mice were placed in pathogen free facilities, maintained at appropriate temperature and relative humidity, followed by a 12-hour light and dark cycle, they freely ate and drank and clean bedding was replaced daily. 3. Method of modeling: 36 Balb/c male mice were divided into 6 groups, with 6 mice in each group. They were: […] Dissolving allopurinol and Antarctic red pigment in double distilled water and mixing well. […] Weights of each group of mice from day 0 onwards were recorded. 5. Uric acid testing: At Sam on days 14, 21, 28, and 35, mice were fasted for 12 hours and blood samples from the posterior orbital venous plexus of the mice were collected for uric acid testing. After the blood collection was completed, the blood was left at room temperature for one hour and centrifuged at a speed of 3000 rpm for 5 minutes to obtain a light-yellow upper serum.

In data set [3] the test system is mice with hyperuricemia. Put plainly: Model of hyperuricemia induced by high purine (yeast extract plus oteracil potassium). It counts as in vivo. Conditions: allopurinol treatment group 20 mg/kg gavage, 7 days, 5 mice per group. From the text: 1. Experimental animal: Balb/c male mice, 6-8 weeks old, with weigh of 16-18 g were purchased from Sperford (Beijing) Biotechnology Co., Ltd. At the Experimental Animal Center of Qingdao University, all mice were placed in pathogen free facilities, maintained at appropriate temperature and relative humidity, followed by a 12-hour light and dark cycle, they freely ate and drank, and clean bedding was replaced daily.
3. […] From Day 5 to Day 7, except for the blank control group, the other four groups were given 0.1 ml (6 mg/animal) of oteracil potassium by intraperitoneal injection.

The mark [4] stands for this setting: after 14 days, Allopurinol group 20 mg/kg.

Consider two compounds from patent publication US20240408158A1 (LINYI UNIVERSITY, priority 2023, published 2024).

The structures appear in SMILES notation.

For `O=P1(N(CCCl)CCCl)NCCCO1` (centres unmarked) [cyclophosphamide], the “micronucleus frequency compared with negative control group” value in data set [1] is recorded as “significantly higher”.

Regarding `Oc1ncnc2[nH]ncc12` [allopurinol], the uric acid level in data set [2] (21st day, Allopurinol group 20 mg/kg) was 247.2 ± 48.98 µmol/L; in data set [2] (28th day, Allopurinol group 20 mg/kg) it was 264.9 ± 54.87 µmol/L; in data set [2] (35th day, Allopurinol group 20 mg/kg), 215.8 ± 37.132 µmol/L; in data set [2] (after 14 days, Allopurinol group 20 mg/kg gavage once a day), 191.5 ± 21.95 µmol/L. Also, the “increase of uric acid level compared with the control group” value in data set [2] (setting [4]) was determined as 24.67%. Besides, the “uric acid level lower than in the High uric acid model group” value in data set [2] (setting [4]) is 30.39%. In addition, the deaths result in data set [3] is recorded as “no deaths”.
